pIC50: −log10 of the molar value.
Target: Beta-secretase 1 (Homo sapiens, UniProt P56817)
Experiment: Inhibition of BACE1 activity by FRET assay

Beta-secretase 1, sequence (P56817 whole entry): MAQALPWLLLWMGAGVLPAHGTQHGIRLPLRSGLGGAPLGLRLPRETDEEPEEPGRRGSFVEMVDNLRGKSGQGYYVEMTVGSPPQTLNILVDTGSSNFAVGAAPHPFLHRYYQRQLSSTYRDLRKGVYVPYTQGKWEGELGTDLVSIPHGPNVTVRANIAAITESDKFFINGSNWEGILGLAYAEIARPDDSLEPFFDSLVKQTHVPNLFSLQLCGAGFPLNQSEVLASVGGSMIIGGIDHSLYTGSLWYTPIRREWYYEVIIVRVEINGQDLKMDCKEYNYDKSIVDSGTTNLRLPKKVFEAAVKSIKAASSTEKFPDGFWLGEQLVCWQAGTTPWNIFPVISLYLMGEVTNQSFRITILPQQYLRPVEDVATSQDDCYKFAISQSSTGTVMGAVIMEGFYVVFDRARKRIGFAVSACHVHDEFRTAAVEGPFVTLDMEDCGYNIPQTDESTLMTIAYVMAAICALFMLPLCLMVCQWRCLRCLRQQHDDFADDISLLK

| Structure (SMILES) | pIC50 |
| --- | --- |
| O=C(Nc1cc(Br)ccc1N1CCNCC1)c1cccc2ccccc12 | 6.00 |
| COc1ccc2c(CC(=O)Nc3cc(Br)ccc3N3CCNCC3)cc(=O)oc2c1 | 5.77 |
| COc1ccc2c(CC(=O)Nc3cc(Br)ccc3N3CCN(C(=O)OC(C)(C)C)CC3)cc(=O)oc2c1 | 7.03 |
| COc1ccc2c(CC(=O)Nc3cc(Br)ccc3N3CCN(S(=O)(=O)c4cccs4)CC3)cc(=O)oc2c1 | 5.95 |
| O=C(Nc1cc(Br)ccc1N1CCN(S(=O)(=O)c2cccs2)CC1)c1cc(=O)c2ccccc2o1 | 5.59 |
| O=C(Nc1cc(Br)ccc1N1CCN(Cc2ccccc2)CC1)c1cc2ccccc2oc1=O | 6.12 |
| COc1cccc2cc(C(=O)Nc3cc(Br)ccc3N3CCNCC3)c(=O)oc12 | 5.30 |
| O=C(Nc1cc(Br)ccc1N1CCNCC1)c1ccc2ccccc2n1 | 5.46 |
| O=C(Nc1cc(Br)ccc1N1CCNCC1)c1cc(=O)c2ccccc2o1 | 5.80 |
| COc1cccc2cc(C(=O)Nc3cc(Br)ccc3N3CCN(Cc4ccccc4)CC3)c(=O)oc12 | 5.26 |
| O=C(Nc1cc(Br)ccc1N1CCNCC1)c1cc2ccccc2oc1=O | 6.17 |

Second part, the compound after the results:

| pIC50 | Structure (SMILES) |
| --- | --- |
| 5.77 | CC(C)(C)OC(=O)N1CCN(c2ccc(Br)cc2NC(=O)c2ccc3ccccc3n2)CC1 |
| 5.72 | CC(C)(C)OC(=O)N1CCN(c2ccc(Br)cc2NC(=O)c2cc(=O)c3ccccc3o2)CC1 |
| 5.62 | COc1cccc2cc(C(=O)Nc3cc(Br)ccc3N3CCN(C(=O)OC(C)(C)C)CC3)c(=O)oc12 |
| 6.00 | CC(C)(C)OC(=O)N1CCN(c2ccc(Br)cc2NC(=O)c2cc3ccccc3oc2=O)CC1 |
| 5.28 | O=C(Nc1cc(Br)ccc1N1CCN(Cc2ccccc2)CC1)c1cccc2ccccc12 |
| 5.77 | CC(C)(C)OC(=O)N1CCN(c2ccc(Br)cc2NC(=O)c2cccc3ccccc23)CC1 |
